The source made the active and inactive calls. The rule behind the calls is not given here.
Key:
Assay type in all cases: cell-based
[1] = biological target: Amyloid-beta precursor protein (Homo sapiens) (UniProt P05067); assay: Reduction in amyloid beta 40 content (unknown origin) expressed in HEK293 cells expressing APP K595N/M596L Swedish mutant at 20 uM after 24 hrs by ELISA
[2] = biological target: Amyloid-beta precursor protein (Homo sapiens) (UniProt P05067); assay: Reduction in amyloid beta 40 content (unknown origin) expressed in HEK293 cells expressing APP K595N/M596L Swedish mutant at 10 uM after 24 hrs by ELISA
[3] = biological target: Amyloid-beta precursor protein (Homo sapiens) (UniProt P05067); assay: Reduction in amyloid beta 40 content (unknown origin) expressed in HEK293 cells expressing APP K595N/M596L Swedish mutant at 0.1 uM after 24 hrs by ELISA
[4] = biological target: Amyloid-beta precursor protein (Homo sapiens) (UniProt P05067); assay: Reduction in amyloid beta 40 content (unknown origin) expressed in HEK293 cells expressing APP K595N/M596L Swedish mutant at 1 uM after 24 hrs by ELISA

Chain of Amyloid-beta precursor protein (Homo sapiens) (P05067 whole entry): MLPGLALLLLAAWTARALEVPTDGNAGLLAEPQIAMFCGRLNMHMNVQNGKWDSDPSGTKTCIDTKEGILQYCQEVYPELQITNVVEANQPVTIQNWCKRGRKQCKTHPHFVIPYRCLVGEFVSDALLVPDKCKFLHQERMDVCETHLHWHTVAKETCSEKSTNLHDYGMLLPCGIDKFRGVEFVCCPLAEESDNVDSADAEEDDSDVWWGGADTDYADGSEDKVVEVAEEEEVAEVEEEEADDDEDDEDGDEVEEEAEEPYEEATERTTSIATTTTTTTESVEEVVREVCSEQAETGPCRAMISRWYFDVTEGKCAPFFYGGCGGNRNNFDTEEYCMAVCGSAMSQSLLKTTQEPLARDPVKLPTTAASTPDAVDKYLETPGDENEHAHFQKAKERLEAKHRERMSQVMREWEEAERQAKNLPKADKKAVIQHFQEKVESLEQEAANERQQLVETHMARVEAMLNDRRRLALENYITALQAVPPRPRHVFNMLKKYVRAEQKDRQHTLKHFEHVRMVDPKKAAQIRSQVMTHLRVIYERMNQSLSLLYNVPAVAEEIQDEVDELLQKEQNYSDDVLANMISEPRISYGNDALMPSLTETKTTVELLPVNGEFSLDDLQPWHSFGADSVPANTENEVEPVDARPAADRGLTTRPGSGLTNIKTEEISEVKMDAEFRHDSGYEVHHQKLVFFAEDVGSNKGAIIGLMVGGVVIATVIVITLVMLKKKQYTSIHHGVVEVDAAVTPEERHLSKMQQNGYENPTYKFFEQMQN

Row | inhibition [1] [%] | Compound | further results
1 | 60.5 | COc1ccc(C[C@H]2COC(=O)[C@@H]2Cc2ccc(OC(=O)Nc3ccc(F)c(Cl)c3)c(OC)c2)cc1OC | 
2 | 66.9 | COc1ccc(C[C@H]2COC(=O)[C@@H]2Cc2ccc(OC(=O)Nc3ccc(Cl)cc3)c(OC)c2)cc1OC | inhibition [2]: Active; inhibition [3]: inactive; inhibition [4]: Active
3 | 52.9 | COc1ccc(NC(=O)Oc2ccc(C[C@H]3C(=O)OC[C@@H]3Cc3ccc(OC)c(OC)c3)cc2OC)cc1 | 
4 | 56 | COc1ccc(C[C@H]2COC(=O)[C@@H]2Cc2ccc(OC(=O)Nc3cc(Cl)cc(Cl)c3)c(OC)c2)cc1OC | 
5 | 52.8 | COc1cccc(NC(=O)Oc2ccc(C[C@H]3C(=O)OC[C@@H]3Cc3ccc(OC)c(OC)c3)cc2OC)c1 | 
6 | 42.4 | COc1ccc(Cl)cc1NC(=O)Oc1ccc(C[C@H]2C(=O)OC[C@@H]2Cc2ccc(OC)c(OC)c2)cc1OC | 
7 | 56 | COc1ccc(C[C@H]2COC(=O)[C@@H]2Cc2ccc(OC(=O)Nc3cccc(C#N)c3)c(OC)c2)cc1OC | 
8 | 41 | COc1ccc(C[C@H]2COC(=O)[C@@H]2Cc2ccc(OC(=O)N(C)c3cccc(Cl)c3)c(OC)c2)cc1OC | 
9 | 29.8 | CNC(=O)Oc1ccc(C[C@H]2C(=O)OC[C@@H]2Cc2ccc(OC)c(OC)c2)cc1OC | 
10 | 53.7 | COc1ccc(C[C@H]2COC(=O)[C@@H]2Cc2ccc(OC(=O)Nc3ccc(C)c(Cl)c3)c(OC)c2)cc1OC | 
11 | 43.5 | COc1ccc(C[C@H]2COC(=O)[C@@H]2Cc2ccc(OC(=O)Nc3ccccc3)c(OC)c2)cc1OC | 
12 | 21.4 | COc1ccc(C[C@H]2COC(=O)[C@@H]2Cc2ccc(OC(=O)NC(C)C)c(OC)c2)cc1OC | 
13 | 70.8 | COc1ccc(C[C@H]2COC(=O)[C@@H]2Cc2ccc(OC(=O)N[C@@H](C)c3ccccc3)c(OC)c2)cc1OC | 
14 | 45 | COc1ccc(C[C@H]2COC(=O)[C@@H]2Cc2ccc(OC(=O)N[C@H](C)c3ccccc3)c(OC)c2)cc1OC | 
15 | 55 | COc1ccc(C[C@H]2COC(=O)[C@@H]2Cc2ccc(OC(=O)Nc3cccc(C)c3)c(OC)c2)cc1OC | 
16 | 49 | COc1ccc(C[C@H]2COC(=O)[C@@H]2Cc2ccc(OC(=O)NCCc3ccccc3)c(OC)c2)cc1OC | 
17 | 61 | COc1ccc(C[C@H]2COC(=O)[C@@H]2Cc2ccc(OC(=O)Nc3cccc(F)c3)c(OC)c2)cc1OC | 
18 | 61.7 | COc1ccccc1NC(=O)Oc1ccc(C[C@H]2C(=O)OC[C@@H]2Cc2ccc(OC)c(OC)c2)cc1OC | 
19 | 20.3 | CCCNC(=O)Oc1ccc(C[C@H]2C(=O)OC[C@@H]2Cc2ccc(OC)c(OC)c2)cc1OC | 
20 | 11.9 | CCN(CC)C(=O)Oc1ccc(C[C@H]2C(=O)OC[C@@H]2Cc2ccc(OC)c(OC)c2)cc1OC | 
21 | 26.2 | COc1ccc(C[C@H]2COC(=O)[C@@H]2Cc2ccc(N3CCCCC3)c(OC)c2)cc1OC | 
22 | 36.3 | CCNC(=O)Oc1ccc(C[C@H]2C(=O)OC[C@@H]2Cc2ccc(OC)c(OC)c2)cc1OC | 
23 | 63 | COc1ccc(C[C@H]2COC(=O)[C@@H]2Cc2ccc(OC(=O)Nc3cccc([N+](=O)[O-])c3)c(OC)c2)cc1OC | 
24 | 30 | COc1ccc(C[C@H]2COC(=O)[C@@H]2Cc2ccc(OC(=O)N(C)c3ccccc3)c(OC)c2)cc1OC | 
25 | 78.7 | COc1ccc(C[C@H]2COC(=O)[C@@H]2Cc2ccc(OC(=O)Nc3cccc(Cl)c3)c(OC)c2)cc1OC | inhibition [2]: Active; inhibition [3]: inactive; inhibition [4]: Active
26 | 41.3 | COc1ccc(C[C@H]2COC(=O)[C@@H]2Cc2ccc(OC(=O)NCc3ccccc3)c(OC)c2)cc1OC | 
27 | 35.4 | COc1ccc(C[C@H]2COC(=O)[C@@H]2Cc2ccc(OC(=O)NC3CCCCC3)c(OC)c2)cc1OC | 
28 | 44.6 | COc1cc(C[C@H]2C(=O)OC[C@@H]2Cc2ccc(OC)c(OC)c2)ccc1O | inhibition [2]: Active; inhibition [3]: inactive; inhibition [4]: inactive
29 | 62.8 | COc1ccc(C[C@H]2COC(=O)[C@@H]2Cc2ccc(OC(=O)Nc3cccc(Cl)c3C)c(OC)c2)cc1OC | 
30 | 58.3 | COc1ccc(C[C@H]2COC(=O)[C@@H]2Cc2ccc(OC(=O)Nc3ccccc3Cl)c(OC)c2)cc1OC | 

Row | Compound | inhibition [1] [%] | further results
31 | COc1ccc(C[C@H]2COC(=O)[C@@H]2Cc2ccc(OC(=O)N(C)C)c(OC)c2)cc1OC | 28.5 | 
